This note sets out measurements from BindingDB's records for doi:10.7270/Q2Z31X54 (Burnham Center For Chemical Genomics, 2011).

The target of the experiment is T1, Endoribonuclease toxin MazF (Escherichia coli (strain K12), UniProt P0AE70).
T1 sequence (P0AE70 whole entry): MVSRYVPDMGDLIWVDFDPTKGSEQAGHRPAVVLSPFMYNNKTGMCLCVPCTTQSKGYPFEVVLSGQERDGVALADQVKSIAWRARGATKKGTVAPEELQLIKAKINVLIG
In words: MazF toxin RNase activators, dose response, biochemical, fluorescence, single-stranded RNA substrate, uHTS hits (AID 588481).

The structures appear in SMILES notation.

Compound `O=c1[nH]c(N=NCc2ccc(F)cc2)nc2ccccc12` [MLS000700887] returned an EC50 of 7.12 µM.

`O=C1Nc2ccc([N+](=O)[O-])cc2C1=NNc1ccc(F)cc1` gave an EC50 of more than 99 µM.

`O=[N+]([O-])c1ccc(N=NCc2cccc3ccccc23)nc1` [N-(naphthalen-1-ylmethylideneamino)-5-nitro-pyridin-2-amine]: the EC50 was more than 99 µM.

Usually EC50 stands for the concentration at which the effect is half-maximal. A higher EC50 goes with a less potent agent.
